Measured values taken from patent publication US6864249B2, “Piperidine and azetidine thrombin inhibitors” (LG Life Sciences, Ltd., priority 1998, dated 2005).
pKi: −log10 of the molar value. Where a name gives a salt, the structure may show the parent alone.

biological target: T1, Thrombin prepared from human plasma (Homo sapiens, UniProt P00734); assay: In vitro enzyme assay for thrombin inhibition constants (Chromozym TH substrate, Dixon plot); assay type: biochemical; settings: pH 7.8, room temperature
T1 construct: Thrombin used in this test was prepared from human plasma; from tissue; host or cells: human plasma
Description: In vitro Enzyme Assays for Determining Inhibition Constants
The activity of thrombin was measured spectrophotometrically using tosyl-Gly-Pro-Arg-p-nitroanilide acetate (Chromozym TH, Boehringer Mannheim) as a substrate. […] Each compound was dissolved in DMSO to make a 1 mM stock solution and dilutions were made thereof with assay buffer (0.1 M Tris HCl, 0.15 M NaCl, 0.1% polyethylene glycol 8000, pH 7.8). Different concentrations of inhibitor were mixed with […] of thrombin in 0.8 mL of the buffer. The mixture was incubated for 10 min at room temperature before adding 0.2 mL of the substrate to a final concentration of 20 μM. […] A graph for the reciprocal value of initial velocity to the inhibitor concentration was derived from progress curves by fitting the data using a linear regression program.

`NCc1ccc(CNC(=O)[C@@H]2CCCN2C(=O)[C@H](NS(N)(=O)=O)C(c2ccccc2)c2ccccc2)s1` [Example 2, N-aminosulfonyl-D-diphenylalanyl-L-prolyl-[(5-aminomethyl-2-thienyl)methyl]amide.HCl] was tested. Which pKi did it give?
The pKi was 8.33.

With `CS(=O)(=O)N[C@@H](C(=O)N1CCC[C@H]1C(=O)NCc1ccc(/C(N)=N/N)s1)C(c1ccccc1)c1ccccc1` [Example 4, N-methylsulfonyl-D-diphenylalanyl-L-prolyl-[(5-amidrazono-2-thienyl)methyl]amide.TFA] as the molecule, how does the pKi read?
The pKi was 9.28.

How did the pKi turn out when `N=C(N)c1ccc(CNC(=O)[C@@H]2CCCN2C(=O)[C@H](NS(=O)(=O)Cc2ccccc2)C(c2ccccc2)c2ccccc2)s1` [Example 6, N-benzylsulfonyl-D-diphenylalanyl-L-prolyl-[(5-amidino-2-thienyl)methyl]amide.TFA] was run?
Its pKi is 10.68.

With `CC(C)(C)OC(=O)N[C@@H](C(=O)N1CCC[C@H]1C(=O)NCc1ccc(C(=N)N)s1)C(c1ccccc1)c1ccccc1` [Example 7, N-t-butoxycarbonyl-D-diphenylalanyl-L-prolyl-[(5-amidino-2-thienyl)methyl]amide.TFA] as the molecule, how does the pKi read?
Its pKi is 11.15.

With `N=C(N)c1ccc(CNC(=O)[C@@H]2CCCN2C(=O)[C@@H](Cc2ccc(Cl)c(Cl)c2)NS(N)(=O)=O)s1` [Example 9, N-aminosulfonyl-D-3,4-dichlorophenylalanyl-L-prolyl-[(5-amidino-2-thienyl)methyl]amide.TFA] as the molecule, how does the pKi read?
Its pKi is 10.19.

With `COC(=O)N[C@@H](C(=O)N1CCC[C@H]1C(=O)NCc1ccc(C(=N)N)s1)C(C1CCCCC1)C1CCCCC1` [Example 10, N-methoxycarbonyl-D-dicyclohexylalanyl-L-prolyl-[(5-amidino-2-thienyl)methyl]amide.TFA] as the molecule, how does the pKi read?
The pKi was 10.28.

`CS(=O)(=O)N[C@@H](C(=O)N1CCC[C@H]1C(=O)NCc1cc(C(=N)N)cs1)C(c1ccccc1)c1ccccc1` [Example 12, N-methylsulfonyl-D-diphenylalanyl-L-prolyl-[(4-amidino-2-thienyl)methyl]amide.TFA] was tested. Which pKi did it give?
The pKi was 10.40.

`CS(=O)(=O)N[C@@H](C(=O)N1CCC[C@H]1C(=O)NCc1cc(CN)cs1)C(c1ccccc1)c1ccccc1` [Example 13, N-methylsulfonyl-D-diphenylalanyl-L-prolyl-[(4-aminomethyl-2-thienyl)methyl]amide.HCl] was tested. Which pKi did it give?
Its pKi is 10.14.

How did the pKi turn out when `CS(=O)(=O)N[C@@H](C(=O)N1CCC[C@H]1C(=O)NCc1csc(C(=N)N)c1)C(c1ccccc1)c1ccccc1` [Example 16, N-methylsulfonyl-D-diphenylalanyl-L-prolyl-[(5-amidino-3-thienyl)methyl]amide.TFA] was run?
Its pKi is 10.35.

`CS(=O)(=O)N[C@@H](C(=O)N1CCC[C@H]1C(=O)NCc1csc(C(=N)NN)c1)C(c1ccccc1)c1ccccc1` [Example 17, N-methylsulfonyl-D-diphenylalanyl-L-prolyl-[(5-amidrazono-3-thienyl)methyl]amide.TFA] was tested. Which pKi did it give?
Its pKi is 9.39.

With `CS(=O)(=O)N[C@@H](C(=O)N1CCC[C@H]1C(=O)NCc1csc(CN)c1)C(c1ccccc1)c1ccccc1` [Example 18, N-methylsulfonyl-D-diphenylalanyl-L-prolyl-[(5-aminomethyl-3-thienyl)methyl]amide.TFA] as the molecule, how does the pKi read?
The pKi was 8.21.

`N=C(N)c1ccc(CNC(=O)[C@@H]2CCCN2C(=O)[C@H](NS(=O)(=O)NC2CCCCC2)C(c2ccccc2)c2ccccc2)s1` [Example 20, N-cyclohexylsulfamoyl-D-diphenylalanyl-L-prolyl-[(5-amidino-2-thienyl)methyl]amide.TFA] was tested. Which pKi did it give?
Its pKi is 10.96.

How did the pKi turn out when `C=CCOC(=O)N[C@@H](C(=O)N1CCC[C@H]1C(=O)NCc1ccc(C(=N)N)s1)C(c1ccccc1)c1ccccc1` [Example 21, N-allyloxycarbonyl-D-diphenylalanyl-L-prolyl-[(5-amidino-2-thienyl)methyl]amide.TFA] was run?
Its pKi is 10.77.

`CS(=O)(=O)N[C@H](CC1CCCCC1)C(=O)N1CCC[C@H]1C(=O)NCc1ccc(C(=N)N)s1` [Example 22, N-methylsulfonyl-D-cyclohexylalanyl-L-prolyl-[(5-amidino-2-thienyl)methyl]amide.TFA] was tested. Which pKi did it give?
Its pKi is 10.70.
